According to patent US8759402B2, “Method to inhibit ischemia and reperfusion injury” (Radical Therapeutix, priority 2002, dated 2014):
Each block holds one molecule with its values, some of them ahead of it.

How the values were obtained:
[1] = tested on: isolated rabbit heart; test: Langendorff perfusion, global ischemia/reperfusion of isolated rabbit heart (infarct size by TTC, CK release)
Experimental: The global ischemia protocol was adapted from that of Tsuchida et al. (1994). All procedures were approved by the Animal Care and Use Committee at The Scripps Research Institute (TSRI). To obtain isolated hearts, hearts were excised from an anesthetized mammal such as a rabbit and quickly cannulated onto the Langendorff perfusion apparatus. The heart is perfused with Krebs-Ringer buffer for 15 minutes before ischemia/reperfusion episodes. No-flow ischemia is maintained for 30 minutes and reperfusion is accomplished by restoring flow for 15 minutes (unless otherwise indicated). Ischemic preconditioning can be induced by three 5 minute cycles of no-flow ischemia and reperfusion immediately preceding the regular ischemia and reperfusion. In brief, the heart was excised from the anesthetized rabbit and quickly cannulated onto the Langendorff perfusion apparatus. The heart was perfused with Krebs-Ringer buffer for 15 minutes before ischemia/reperfusion episodes. No-flow ischemia was maintained for 30 minutes and reperfusion was accomplished by restoring flow for 15 minutes (unless otherwise indicated). Ischemic preconditioning was induced by three 5 minute cycles of no-flow ischemia and reperfusion immediately preceding the regular ischemia and reperfusion. The efficacy of these interventions was verified by measurement of creatine kinase (CK) release and infarct size measurement using triphenyl tetrazolium chloride (TTC) staining (Pain et al., 2000; Downey, 2001). The measurement of infarct size was essentially identical to that detailed by Downey (2001) except for the method of quantitation. After the TTC reaction, the heart slices were scanned into TIFF files and analyzed with Adobe Photoshop 5.5. The images were digitally manipulated in an identical manner to ensure equivalent outcome. […] The histogram counts of red and white were recorded. The percent infarction was calculated as white counts divided by the sum of red plus white counts.

[2] = tested on: isolated rat hearts; test: Langendorff perfusion, no-flow ischemia/reperfusion of isolated rat heart (infarct size by TTC, CK release, coronary flow); settings: for coronary flow after ischemia: treated hearts, reperfusion; for CK release (in words) / infarct size (in words): cimetidine 200-600 μM, sulfaphenazole 10 μM and 300 μM; for infarct size (in words): 2 hours reperfusion
Experimental: FIG. 2. […] Adult rat hearts were perfused in Langendorff mode for 20 minutes, then subjected to 30 minutes no-flow ischemia followed by a 2 hour reperfusion. […] (A) After 2 hours of reperfusion, hearts were frozen and assessed for infarct size using TTC. Coronary effluent was collected for 15 minutes immediately before and after ischemia and assessed for CK release. […] All procedures were approved by the Animal Care and Use Committee at The Scripps Research Institute (TSRI). […] No-flow ischemia was maintained for 30 minutes and reperfusion was accomplished by restoring flow for 15 minutes for creatine kinase (CK) release determination and dihydroethidium (DHE) staining, or 120 minutes for infarct size determination by triphenyl tetrazolium chloride (TTC) staining. Measurement of CK activity was performed using the CK EC 2.7.3.2 UV-Test kit (Sigma) as per the manufacturer's instructions. The measurement of infarct size after TTC staining was performed as described in Example 1.

[3] = tested on: rabbit heart (circumflex coronary artery occlusion); test: Rabbit circumflex coronary artery occlusion and reperfusion; assay type: in vivo; settings: n=6
[4] = tested on: mitochondrial respiratory chain Complex I, II, IV; test: Oxygen consumption (respiration) of mitochondria from perfused rat hearts; settings: hearts perfused with chloramphenicol for 30 minutes
Experimental: FIG. 4. […] (B) Mitochondrial respiration was measured by polarography. […] Error bars represent standard deviation. […] Hearts were rapidly minced in ice-cold MSE buffer (in mmol/L, mannitol 220, sucrose 70, EGTA 2, MOPS 5 (pH 7.4), and taurine 2 supplemented with 0.2% fatty acid-free bovine serum albumin (BSA)). Heart tissue was homogenized in MSE with a Polytron type tissue grinder at 11,000 rpm for 2.5 seconds followed by 2 quick strokes at 500 rpm with a loose fit Potter-Elvehjem tissue grinder. The homogenate was centrifuged at 500 g twice for 5 minutes, saving the supernatant. Mitochondria were pelleted from the supernatant by centrifugation at 3000 g twice, and the pellet was rinsed with MSE buffer. The supernatant was saved as crude cytosol. The final pellet was rinsed and resuspended in 50 μl Incubation Medium (in mmol/L, mannitol 220, sucrose 70, EGTA 1, MOPS 5 (pH 7.4), taurine 2, MgCl2 10, and KH2PO4 5, supplemented with 0.2% fatty acid-free BSA) (Scholte et al., 1997). Mitochondria were incubated for 15 minutes on wet ice and protein concentration was determined with BSA as a standard by a Bradford assay. All work was performed on wet ice at 0° C. Oxygen consumption was measured at 30° C. with a Clark type oxygen electrode (Instech) in 600 μl KCl respiration buffer (in mmol/L: KCl 140, EGTA 1, MOPS 10 (pH 7.4), MgCl2 10, and KH2PO4 5, supplemented with 0.2% fatty acid-free BSA) (Scholte et al., 1997; Chance et al., 1961; McKee et al., 1990). Complex II activity was measured using 200 μg mitochondria with succinate, 5 mM, as a substrate. […] For each complex the ADP-stimulated respiration rate (state 3) was measured after the addition of 2 mM ADP; the ADP-independent respiration rate, oligomycin-insensitive (state 4) was measured after the addition of 2 μM oligomycin; and the maximal respiration rate was measured after uncoupling the mitochondria with 2 μM FCCP. Rates were calculated as nA O2/min/mg protein after subtracting the rate that was insensitive to the inhibitors antimycin A, 1 μM, for complex III, and KCN, 1 mM, for complex IV.

[5] = tested on: cytochrome oxidase subunit I; test: Immunodetection of mitochondrial-encoded proteins after CAP infusion (Example I); set-up: species or system rabbit; settings: CAP infusion for as little as 15 minutes
[6] = tested on: mitochondrial-encoded proteins (CO-1, ND3); test: Western blotting of mitochondrial-encoded proteins after CAP perfusion (Example II); set-up: species or system rat; settings: perfusion with CAP for 30 minutes
[7] = tested on: p46 (EF-Tumt) phosphorylation; test: Phosphorylation of mitochondrial p46 (EF-Tumt) with [γ-32P]ATP in the presence of kinase inhibitors; assay type: biochemical, rabbit
Experimental: For phosphorylation reactions, 100 μg of purified mitochondria was incubated in MSE buffer supplemented with 25 mmol/L HEPES-KOH [pH 7.5], 10 mmol/L magnesium acetate, 10 μmol/L ATP (cold), and 10 μCi [γ-^32P]ATP for 30 minutes at 30° C. with or without 250 μg of cytosol. The reaction mixture was subsequently centrifuged for 5 minutes at 10,000 g. The mitochondrial pellet was resuspended in 500 μL of MC buffer and washed twice. The mitochondrial proteins were resolved on a 12% polyacrylamide gel, transferred to nitrocellulose, and detected by autoradiography.
For protein kinase inhibition experiments, cytosols were incubated with the inhibitors at the indicated concentrations, then mitochondria were added and the reaction was initiated with the addition of ATP. Serine/threonine kinase inhibitors (Calbiochem, catalog No. 539572) included bisindolylmaleimide I, 10 nmol/L; H-89, 48 μmol/L; protein kinase G inhibitor, 86 μmol/L; ML-7, 0.3 μmol/L; KN-93, 0.37 μmol/L; and staurosporine, 10 nmol/L. Tyrosine kinase inhibitors (Calbiochem, catalogue No. 657021) included genistein, 25 μmol/L; PP2, 5 nmol/L; AG490, 15 μmol/L; AG1296, 1 μmol/L; and AG1478, 3 nmol/L.

[8] = tested on: AMMC demethylase (cytochrome P450) in rat liver microsomes; test: Fluorometric cytochrome P450 assay, AMMC demethylation in rat liver microsomes; assay type: biochemical; settings: male, Sprague-Dawley, pH 7.4, probe AMMC (30 μM), AMMC substrate, read-out: IC50, inhibition of AMMC demethylation
Experimental: Microsomes were isolated from rat livers (Sprague-Dawley, male, 6-8 weeks) by differential centrifugation as described by Walles and coworkers (2001). Homogenized tissue was centrifuged at 11,000 g for 30 minutes at 4° C. The supernatant was further centrifuged at 170,000 g for 60 minutes at 4° C. The resulting pellet was resuspended in KCl buffer and centrifuged at 200,000 g for 40 minutes at 4° C. The microsomal fraction was then transferred into Tris-sucrose buffer (0.25 M sucrose, 20 mM Tris buffer, 5 mM EDTA). Protein concentrations were determined by bicinchoninic acid micro assay (Pierce). Microsomal solutions were aliquoted and stored at −80° C. until further use.

[9] = target: CYP2D6 (Homo sapiens, UniProt P10635); test: AMMC demethylation by recombinant CYP2D6; assay type: biochemical; settings: recombinant system
[10] = target: T1, CYP2D2 (Rattus norvegicus, UniProt P10634); test: AMMC demethylase activity in CYP2D2 supersomes; settings: sulfaphenazole 50 μM
T1 sequence (P10634 1-500): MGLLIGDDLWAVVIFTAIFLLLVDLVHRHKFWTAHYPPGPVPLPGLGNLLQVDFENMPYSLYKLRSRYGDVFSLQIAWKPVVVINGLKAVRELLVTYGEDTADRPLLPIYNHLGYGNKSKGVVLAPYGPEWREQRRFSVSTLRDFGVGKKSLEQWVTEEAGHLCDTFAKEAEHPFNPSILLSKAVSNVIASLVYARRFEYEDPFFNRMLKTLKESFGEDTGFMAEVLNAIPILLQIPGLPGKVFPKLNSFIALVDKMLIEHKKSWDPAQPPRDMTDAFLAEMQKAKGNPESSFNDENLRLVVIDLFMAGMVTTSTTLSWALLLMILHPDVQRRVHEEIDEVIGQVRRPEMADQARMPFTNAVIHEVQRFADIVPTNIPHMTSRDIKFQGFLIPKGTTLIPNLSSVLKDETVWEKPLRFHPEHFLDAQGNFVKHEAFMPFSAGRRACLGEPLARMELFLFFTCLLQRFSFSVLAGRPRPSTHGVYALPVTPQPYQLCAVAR

[11] = tested on: H9c2 and neonatal rat cardiomyocytes; test: Hydrogen peroxide-induced apoptosis and superoxide production in cells
[12] = mitochondria incubated with control or ischemic cytosols, H-89 48 μmol/L, genistein 25 μmol/L

CYP2D6, sequence (P10635 whole entry): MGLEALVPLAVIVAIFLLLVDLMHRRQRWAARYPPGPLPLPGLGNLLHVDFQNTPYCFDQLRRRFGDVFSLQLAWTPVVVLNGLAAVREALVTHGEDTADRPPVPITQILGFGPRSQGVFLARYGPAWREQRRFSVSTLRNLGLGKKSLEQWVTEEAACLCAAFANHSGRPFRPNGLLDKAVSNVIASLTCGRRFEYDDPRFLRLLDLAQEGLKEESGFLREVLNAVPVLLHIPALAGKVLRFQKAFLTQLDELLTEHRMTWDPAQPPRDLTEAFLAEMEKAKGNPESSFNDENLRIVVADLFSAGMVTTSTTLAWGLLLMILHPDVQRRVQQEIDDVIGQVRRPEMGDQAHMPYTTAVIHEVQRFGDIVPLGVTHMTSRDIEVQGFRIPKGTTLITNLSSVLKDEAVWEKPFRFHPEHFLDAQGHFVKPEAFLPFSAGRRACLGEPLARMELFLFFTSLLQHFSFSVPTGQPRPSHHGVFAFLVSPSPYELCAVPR

Molecule: O=S(=O)(NCCNC/C=C/c1ccc(Br)cc1)c1cccc2cnccc12 [H-89]
phosphorylation of p46 [7, 12]: did not affect

Molecule: CN/C(=N/CCSCc1nc[nH]c1C)NC#N [cimetidine]
CK release (in words) [2]: reduced CK release
infarct size (in words) [2]: dose-dependent reduction
coronary flow after ischemia [2]: prevent the associated drop in coronary flow

Molecule: Nc1ccc(S(=O)(=O)Nc2ccnn2-c2ccccc2)cc1 [sulfaphenazole]
CK release (in words) [2]: significant reduction
infarct size (in words) [2]: significant reduction
coronary flow after ischemia [2]: prevent the associated drop in coronary flow
IC50 at 1 h [8]: 500 nM
inhibition of CYP2D6 (AMMC demethylation) [9]: not inhibited
inhibition of CYP2D2 activity (AMMC demethylase) [10]: did not appear to significantly inhibit
rescue from hydrogen peroxide-induced apoptosis and superoxide production [11]: rescued

Molecule: gentamicin sulfate
cardioprotection ([2]; gentamicin in perfusion buffer): not cardioprotective

Now from value to molecule, other results behind:

immunodetection of mitochondrial-encoded cytochrome oxidase I [5]: near-complete loss
Molecule: O=C(N[C@H](CO)[C@H](O)c1ccc([N+](=O)[O-])cc1)C(Cl)Cl [CAP, chloramphenicol]
infarct size after ischemia and reperfusion ([1]; 100 μg/mL CAP in buffer throughout: 15 min stabilization, 30 min global ischemia, 2 h reperfusion, mean±SEM, untreated 64.1 (±4.1)): 43.1 (±6.4)
infarct size ([1]; CAP administered only in the last 15 minutes of the 2 hour reperfusion (control for TTC interference)): 69.2±5.7
CK release after global ischemia ([1]; CAP pretreatment, 100 μg/mL): reduced
infarct size ([2]; CAP 300 μm before and after global no-flow ischemia (I/R+CAP), 30 min ischemia, 2 h reperfusion, SEM, n=5, untreated 43.2±3.2%): 16.0±3.6%
CK released after ischemia ([2]; CAP administered prior to ischemia, SEM, n=5, untreated 2.25±0.28): 0.27±0.13 U/15 min
infarct size ([2]; chloramphenicol administered immediately after ischemia (at reperfusion), n=5, untreated 43.2%): 21.7%
reduction of infarct size ([2]; pretreatment of hearts prior to ischemia and reperfusion (summary)): about 90%
coronary flow after ischemia [2]: prevent the associated drop in coronary flow
infarct size, of the area at risk ([3]; CAP 20 mg/kg i.v. 30 min before 30 min occlusion, 4 h reperfusion, untreated 49.3 ±17.7): 18.3%
post-ischemic hypotension (decrease in left ventricular pressure from baseline) ([3]; CAP 20 mg/kg i.v., untreated −34.2±2.3): −13.3±2.2 mm H2O
Complex I State 4 ([4]; −CAP 13.74 ± 6.33): 12.09 ± 4.59 n Atoms O/min/mg
Complex II State 4 ([4]; −CAP 21.70 ± 5.89): 23.04 ± 7.32 n Atoms O/min/mg
Complex II State 3 ([4]; −CAP 85.47 ± 22.2): 83.58 ± 14.4 n Atoms O/min/mg
Complex IV State 4 ([4]; −CAP 113.99 ± 21): 116.89 ± 23 n Atoms O/min/mg
Complex I State 3 ([4]; −CAP 158.57 ± 32): 162.99 ± 31 n Atoms O/min/mg
Complex IV State 3 ([4]; −CAP 209.85 ± 40): 201.09 ± 23 n Atoms O/min/mg
levels of mitochondrial-encoded proteins and respiratory chain activity [6]: not sufficient to alter

phosphorylation of p46 ([7]; mitochondria from an ischemic heart incubated with genistein, no cytosol): able to inhibit
phosphorylation of p46 [7, 12]: reduced phosphorylation
Molecule: O=c1c(-c2ccc(O)cc2)coc2cc(O)cc(O)c12 [genistein]
